These results are taken from patent US9073851B2, “Compositions and methods for treating cancer” (Board of Regents, The University of Texas System, priority 2011, dated 2015).

Series [1] is described as follows: Toxicity and body weight observation in mice.
The test system of the next series is MCF-7 cells. Put plainly: Clonogenic survival assay. It is filed as cell-based, human. On the procedure:
To study the effect of CaMK-III growth of ER(−) and ER(+) breast cancer cells we performed a clonogenic assay, which is based on the ability of a single cell to grow into a colony (Franken N A, et al. Nat Protoc 2006: 1:2315-9), using MDA-MB-231 and MCF-7 cells, respectively. Cells were transfected with either CaMK-III or control siRNA (50 nM) […] over a period of two weeks.
This assay is an in vitro cell survival assay based on the ability of a single cell to grow into a colony. Briefly, cells (500 cells/well) were transfected with control siRNA or CaMK-III siRNA every week and grown for 2 to 3 weeks. Cells were stained with crystal violet and colonies were counted. Each experiment was repeated twice.
To study the effect of 5-HT1B on the survival and colony formation of breast cancer cells a clonogenic survival assay was performed using various concentrations of […] over a period of two weeks. This assay is based on the ability of a single cell to grow into a colony [Franken N A, et al. Nat Protoc 2006: 1:2315-2319]. […] Cell death and detachment as well as reduced cell number was observed.
This assay is an in vitro cell survival assay based on the ability of a single cell to grow into a colony. […] Cells were stained with crystal violet and colonies cells were counted. […]

On to `CCCCCCCCCOc1ccc2[nH]cc(CCN)c2c1` [5-NT, 5-nonylytryptamine], for which the “toxicity (weight loss)” value in series [1] (high dose of 50 mg/kg) is “without displaying any toxicity”. In series [1] (liposome incorporated, i.v., 10 mg/kg, at least 15 doses, 4 weeks), the body weight entry was “did not lose any weight”. The colony formation result with MCF-7 cells is on record as “inhibits colony formation”.
